System: Aβ1-42 peptides
Assay: In vitro amyloid seeding of Aβ1-42 with lysates of treated A2058 cells (ThT binding, TEM)
Assay type: cell-based, human
Protocol: FIGS. 5A-Y show MEK and proteasome inhibition provoke protein aggregation and amyloidogenesis. (A-B) WM115 cells treated with 20 nM AZD6244, 100 nM Bortezomib, or both for 24 hr were stained with Lys48-specific ubiquitin antibodies. Arrowheads mark ubiquitin-positive aggregates. Scale bar: 10 μm. Amounts of aggregates per cell were quantitated using ImageJ (median, n≥100, ANOVA). (C-F) Following transfection with polyQ79 plasmids alone or with both polyQ79 and HSF1^S326D plasmids for one day, HEK293T cells were treated with inhibitors as described in (A-B). Cells were either analyzed for aggregate size or stained with 10 μM ThT. (G) Treated tumor cell lines were stained with 10 μM ThT. Geometric means were used to calculate fold changes in ThT fluorescence intensity and the log 2(FC) values were presented as a heat map. […] Following treatments, AOs were quantitated by ELISA using A11 antibodies (mean±SD, n=3, ANOVA). (I) Intrinsic AOs were detected in human tumor cell lines (mean±SD, n=3, ANOVA). […] Amyloids were quantitated by ELISA (mean±SD, n=3, Student's t-test). […] AF formation was monitored by ThT binding (mean±SD, n=3, ANOVA). […] Amyloids were quantitated (mean±SD, n=3, Student's t-test). […] Viable cells were quantitated by CellTiter® blue (mean±SD, n=6, Student's t-test). […] Viable cells were quantitated (mean±SD, n=6, ANOVA). […]
This figure is related to FIG. 5. […] (C) Quantitation of protein aggregate size. […]

CC(C)C[C@H](NC(=O)[C@H](Cc1ccccc1)NC(=O)c1cnccn1)B(O)O [Bortezomib, bortezomib]
amyloid seeding efficacy of cell lysates (20 μM Aβ1-42, ThT binding): augmented
fibril morphology after seeding (transmission electron microscopy) (37° C., 2 days): mature fibrils
